From patent US20060110456A1, “Method for biocidal and/or biostatic treatment and compositions therefor” (NATIONAL UNIVERSITY OF SINGAPORE, priority 2004, published 2006)
In brackets after ≈: the same amount, converted by molar mass. Entries after “also recorded” stand apart in the source; their conditions may differ. Counter-ions that a name gives are not always drawn.

Key:
barnacle nauplii = assay: Toxicity of drugs under different light conditions and over time (stability in seawater); format: in vivo, Balanus amphitrite; settings: for Change in toxicity on ageing in seawater, 12L:12D condition: 12 h light and 12 h dark, after 4 weeks
Description: Preliminary experiments were carried out to examine the chemical stability of the drugs. 25 ug ml^−1 seawater suspensions of the drugs were prepared, in 3 replicates per condition, 3 replicate tubes containing 15 ml per test tube per prepared for each treatment type. The treatments consisted of: • i. Dark condition: tubes were wrapped in aluminium foil and kept in the dark at all times • ii. 12L:12D condition, where the tubes were subject incubated in a plant growth chamber with light regime of 12 hours light and 12 hours dark. • iii. UV treated tubes were subject to UV for half an hour. […] Sets (1) & (2) were tested at week 0, 1, 2 and after 4 weeks. “UV” set is only assayed after UV treatment. […] Effect of UV

[1] = cited from earlier work; for Solubility: in words
[2] = system: hard fouling (barnacles, serpulids, spirorbids); assay: Field testing of coated rods; format: in vivo; design: Total hard fouling, difference in mean cover (%), drug vs control / Barnacles, difference in mean cover (%), drug vs control: tested at 25 µg/ml of coating; Serpulids, difference in mean cover (%), drug vs control: tested at 25 µg/ml of coating mix; settings: for Performance against barnacles / Performance against serpulid polychaetes / Total hard fouling, mean cover / Performance against spirorbid polychaetes: coated rods; for Performance against barnacles / Performance against serpulid polychaetes / Effect of addition of drug on antifouling performance of VC50 coating (total hard fouling) / Performance against spirorbid polychaetes: in words; for Overall performance in field assay: crude rank, best (1) to worst (8); for Barnacles, difference in mean cover (%), drug vs VC50 / Serpulids, difference in mean cover (%), drug vs VC50 / Spirorbids, difference in mean cover (%), drug vs VC50 / Total hard fouling, difference in mean cover (%), drug vs VC50: drug + VC50 rods vs VC50 control; for Barnacles, difference in mean cover (%), drug vs control / Serpulids, difference in mean cover (%), drug vs control / Spirorbids, difference in mean cover (%), drug vs control / Total hard fouling, difference in mean cover (%), drug vs control: drug + VC50 rods vs uncoated blank control; for Barnacles Mean cover (%) / Serpulids Mean cover (%) / Spirorbids Mean cover (%) / Total hard fouling Mean cover (%): rods coated with drug + VC50, field test; for Total hard fouling Mean cover (%): percentage cover within 6 mm×50 mm transect; for Total hard fouling, mean cover: 25 ug active ingredient per ml of VC50 coating
Description: Fouling on rods occurs more rapidly than on flat panels, enabling rapid assessment of the performance of coatings.
6 mm diameter glass rods were cut to 150 mm length and prepared prior to coating by baking in a furnace at 150° C. for 24 hours and then cooling in a dessicator.
All pharmaceuticals were obtained in commercially available form. All tablets were reduced to fine powder with a mortar and pestle, and capsules were opened to extract the contents. The amount of drug powder required to attain the desired concentrations for all tests was calculated from product dosage information and then measured by weight on a high-resolution electronic balance. This was added to the coating and mixed thoroughly prior to application to obtain the concentration of 25 ug active ingredient per ml of coating mix.
The commercial antifouling product used to benchmark field experiments was VC Offshore with Teflon® manufactured by International Coatings.
For our experiments, a reduced copper coating (“VC50”) was prepared by mixing approximately 20 g of #YBA779 into 100 ml of #YBA707. The prepared coating was then allowed to stand so that bubbles from the mixing process dissipated. 15 ml centrifuge tubes were filled with 10 mls of prepared coating. Prepared glass rods were then immersed in the coating to a height of 100 mm and then suspended on a frame to air dry until coating cured.
Five replicate rods were tested for every experimental treatment, including controls. Two sets of controls were used, an uncoated blank control and a VC50 control without pharmaceutical additives. Rod were randomly arrayed on plastic vexar mesh attached to PVC frames and suspended at a depth of 10 cm from the water surface. […] Rods were examined visually weekly for the duration of testing, which typically lasts between 6 to 10 weeks. All fouling was scored as percentage cover of each category within a 6 mm×50 mm transect on each rod.

[3] = system: marine bacteria (ten strains); assay: Bio-adhesion assay (crystal violet microplate); format: cell-based, marine bacteria isolated from Singapore fouling communities; settings: for Effect on bacterial adhesion: polystyrene or tissue culture surface as named in the value; for Effect of drugs on adhesion of bacteria: 50 μl of 125 μg ml^−1 drug + 200 μl bacteria, 2 hours
Description: The effect of pharmaceuticals on bacterial adhesion was analyzed using a modified microplate method adapted from Shea and Williamson (1990). This method consists of staining the attached bacteria with crystal violet, releasing the stain with sodium desoxycholate, and measuring the resulting absorbance of the crystal violet. The absorbance is proportional to the degree of bacterial adhesion to the surface.
Ten strains of bacteria (strain numbers 1, 4, 9, 14, 18, 20, 27, 28, 29 and 30) were chosen for this study. Flat bottom non-tissue culture treated polystyrene (hydrophobic, Falcon #351172) (referred to as polystyrene) and flat bottom tissue culture treated polystyrene (hydrophilic, Falcon #353072) microplates were used in the analyses. These two types of plates were chosen because they were sterile and offered two different kinds of surfaces to determine the adhesion preferences of the bacteria. Each test was done in duplicate. For the control and blank wells, 50 μl of sterile deionized water were added. For those wells that were to contain drugs, 50 μl of drugs at concentration of 125 μg ml^−1 were added. Then 200 μl of bacteria suspension in sterile seawater, whose absorbance had been adjusted to 0.6 at 600 nm using a spectrophotometer (Beckman), were added. Blanks contained 200 μl of sterile seawater.
The bacteria in suspension were allowed to attach for 2 hours at 28° C. Unattached cells were removed by pipetting out almost all trace of liquid and rinsed three times with 300 μl of sterile seawater each time. The attached cells were stained with 200 μl of crystal violet solution (0.1% w/v) in each well for 5 min. After removing the stain by pipetting, the wells were rinsed twice with 300 μl of sterile deionized water each time. Sodium desoxycholate (200 μl) solution (2% w/v) was then added to each well to extract the crystal violet from the stained cells for 10 min. The absorbance of the extracted solution was read at 590 nm using a microplate reader (Sunrise, Tecan, Switzerland).
The data were analyzed using T-test (Two-sample assuming unequal variances) to determine the significance of the absorbance values of each bacterial strain versus the blanks to determine whether there was adhesion, i.e. increase in absorbance. Each drug effect on adhesion was analyzed by comparing the absorbance of each bacterial strain minus the control blank versus bacteria in presence of drug minus the drug control. When the data is significant, there are bacterial cells attached to the surface in the control but in the presence of drugs, there is no attachment.

[4] = drug at 25 ug per ml of VC50 coating
[5] = drug at 25 ug per ml of VC50 coating, hydrochloride
[6] = 25 ug ml^−1 seawater suspension
[7] = strain 20, hydrophobic surface (untreated polystyrene)

Compound	Solubility [1]	Performance against barnacles [2]	Performance against serpulid polychaetes [2]	Overall performance in field assay [2]	Barnacles, difference in mean cover (%), drug vs VC50 [2]	Serpulids, difference in mean cover (%), drug vs VC50 [2]	Spirorbids, difference in mean cover (%), drug vs VC50 [2]	Total hard fouling, difference in mean cover (%), drug vs VC50 [2]	Barnacles, difference in mean cover (%), drug vs control [2]	Serpulids, difference in mean cover (%), drug vs control [2]	Spirorbids, difference in mean cover (%), drug vs control [2]	Total hard fouling, difference in mean cover (%), drug vs control [2]	Effect of addition of drug on antifouling performance of VC50 coating (total hard fouling) [2, 5]	Barnacles Mean cover (%) [2]	Serpulids Mean cover (%) [2]	Spirorbids Mean cover (%) [2]	Total hard fouling Mean cover (%) [2]	Effect on bacterial adhesion ([3]; hydrochloride)	Change in toxicity on ageing in seawater, 12L:12D condition (barnacle nauplii; [6])	Total hard fouling, mean cover [2]	other results
CN1CCN(C(c2ccccc2)c2ccccc2)CC1 [CYZ, Cyclizine hydrochloride]	soluble in water	significantly lower than both blank and VC50 controls	significantly enhanced the performance of VC50 against serpulid polychaetes	5	−13%	−1.67%	−5%	−19.7%	−77.34%	−6.67%	+6%	−78.0%	marginally increased the performance of VC50 coating; also recorded: significantly improved the performance of VC50 coating	10.33%	0%	11.67%	22.0%	did not modify bacterial adhesion on polystyrene; also recorded: marginally increased adhesion for strain 27 in the tissue culture surface	–	–	Stability under UV and in seawater (barnacle nauplii; other studies carried out by the group): does not breakdown under UV and remains stable after four months in seawater; Reduction of total hard fouling cover compared to VC50 alone [2, 4]: 47.2%; Effect of drugs on adhesion of bacteria ([3]; strain 27, hydrophilic surface (tissue culture treated polystyrene)): *Incr adhesion
CCCCCCCCCC(=O)OC1(c2ccc(Cl)cc2)CCN(CCCC(=O)c2ccc(F)cc2)CC1 [HDL, haloperidol decanoate]	almost insoluble in water	did not significantly reduce barnacle cover compared to VC50 controls	completely excluded	4	−6.7%	−1.67%	−16.66%	−25%	−69.7%	−3.33%	+5%	−68%	–	23.3%	0%	6.67%	30%	–	increased in toxicity	30%	Solubility in water [1]: 10 µg/mL (≈ 18.9 µM); Performance against spirorbid polychaetes [2]: exclude spirorbid settlement; also recorded: significantly improve the performance of VC50 against spirorbid polychaetes; Effect of addition of drug on antifouling performance of VC50 coating (total hard fouling) [2, 4]: significantly less on VC50+HDL treated rods; also recorded: significantly improved the performance of VC50 coating; Effect on bacterial adhesion [3]: significant inhibition of adhesion in strain 1 and 20; Effect of drugs on adhesion of bacteria ([3]; strain 1 (Rhodovulum), hydrophobic surface (untreated polystyrene)): *** (*** p < 0.005); Effect of drugs on adhesion of bacteria [3, 7]: * (Significantly less adhesion observed: * p < 0.05)
Cc1nccn1CC1CCc2c(c3ccccc3n2C)C1=O (centres unmarked) [ZFN, ondansetron hydrochloride]	soluble in saline and water	–	–	2	−26.33%	0%	−18.66%	−45%	-89.3%	−1.66%	+3%	−88%	increased the antifouling properties of VC50 coating significantly; also recorded: significantly improved the performance of VC50 coating	3.67%	1.67%	4.67%	10%	prevented biofilm formation for almost all strains in the polystyrene surface; also recorded: increased cell adhesion in the tissue culture surface for strain 30	increased in toxicity	10%	Effect of UV on drug toxicity to barnacle nauplii (barnacle nauplii; 25 ug ml^−1 seawater suspension, UV for half an hour): reduction in toxicity under UV; Performance against spirorbid polychaetes [2]: exclude spirorbid settlement; Less spirorbid cover than VC50 [2, 4]: 18.7%; Reduction in barnacle cover compared to VC50 [2, 4]: 26.3%; Effect of drugs on adhesion of bacteria ([3]; strain 4 (Bacillus), hydrophobic surface (untreated polystyrene)): ** (** p < 0.01); Effect of drugs on adhesion of bacteria ([3]; strain 9 (Bacillus), hydrophobic surface (untreated polystyrene)): *** (*** p < 0.005); Effect of drugs on adhesion of bacteria ([3]; strain 14 (Vibrio), hydrophobic surface (untreated polystyrene)): * (Significantly less adhesion observed: * p < 0.05); Effect of drugs on adhesion of bacteria ([3]; strain 18 (Microbacterium), hydrophobic surface (untreated polystyrene)): * (Significantly less adhesion observed: * p < 0.05); Effect of drugs on adhesion of bacteria [3, 7]: ** (** p < 0.01); Effect of drugs on adhesion of bacteria ([3]; strain 27, hydrophobic surface (untreated polystyrene)): *** (*** p < 0.005); Effect of drugs on adhesion of bacteria ([3]; strain 28, hydrophobic surface (untreated polystyrene)): *** (*** p < 0.005); Effect of drugs on adhesion of bacteria ([3]; strain 29, hydrophobic surface (untreated polystyrene)): * (Significantly less adhesion observed: * p < 0.05); Effect of drugs on adhesion of bacteria ([3]; strain 30, hydrophilic surface (tissue culture treated polystyrene)): * (Significantly less adhesion observed: * p < 0.05); Effect of drugs on adhesion of bacteria ([3]; strain 30, hydrophobic surface (untreated polystyrene)): * (Significantly less adhesion observed: * p < 0.05)
